What was measured:
Assay type in all cases: biochemical
[1] = Anti-oxidation activity test (DPPH radical elimination ability); conditions: Trolox equivalent amount; sample 100 mg/l in 50% v/v ethanol, 1 mM DPPH, 30 minutes, absorbance 520 nm
Procedure: As the anti-oxidation activity, to what extent it can eliminate DPPH (1,1-diphenyl-2-picrylhydrazyl) (mfd. by Tokyo Chemical Industry) radicals was evaluated by an absorptiometric method (520 nm). Its illustrative method is as the following anti-oxidation activity measuring method.
Used as the standard of radical elimination ability was Trolox (218940050: mfd. by ACROS ORGANICS) prepared from α-tocopherol which is a typical antioxidant substance by releasing its side chain to provide water-soluble nature. By preparing a calibration curve of Trolox concentration and absorbance (y=−0.2099x+0.4179), anti-oxidation activity of each sample was evaluated by converting it into Trolox equivalent amount. Regarding samples in the table, 5-CQA is manufactured by Tokyo Chemical Industry and ferulic acid is manufactured by Tokyo Chemical Industry.
1 mM ethanol solution of DPPH is prepared (39.4 mg/100 ml). After dissolution, DPPH is immediately used in the test (preparation when used).
By dissolving each sample in 50% v/v ethanol, its 100 mg/l solution is prepared.
A 4 ml portion of the above-mentioned sample solution and 1 ml of the DPPH solution are added to a test tube, followed by stirring and allowing to stand still for 30 minutes, and then absorbance at a wavelength of 520 nm is measured.
By applying absorbance of the sample to the calibration curve, Trolox equivalent amount (mol) is calculated.

[2] = Deodorizing activity test (1) with tyrosinase as polyphenol oxidase; conditions: Tyrosinase 1 mg, sample 2 mg, sodium methyl mercaptan 15% aqueous solution 2 μl, room temperature 10 minutes, head space gas detection tube
Procedure: (§1) Tyrosinase (mfd. by SIGMA, 1 mg) or laccase (mfd. by Amano Enzyme, 1 mg) was added as a polyphenol oxidase to each (2 mg) of 5-CQA (mfd. by Tokyo Chemical Industry), ferulic acid (mfd. by Tokyo Chemical Industry) and ferulylquinic acid and dissolved therein, and then sodium methyl mercaptan (mfd. by Tokyo Chemical Industry, 15% aqueous solution) (2 μl) was added thereto as a malodor substance and sealed therein, followed by stirring at room temperature for 10 minutes. The amount of methyl mercaptan in the head space part was measured using a gas detection tube (GASTEC Corporation, #71H) and the deodorizing ratio was calculated in accordance with the following mathematical expression.
(§2) In this connection, a system to which each of CQA or FQA (2 mg) and polyphenol oxidase were not added was used as a control plot.
(§3) Deodorizing ratio (%)=100−(methyl mercaptan concentration of sample plot/methyl mercaptan concentration of control plot)×100

[3] = Deodorizing activity test (1) with laccase as polyphenol oxidase; conditions: Laccase 1 mg, sample 2 mg, sodium methyl mercaptan 15% aqueous solution 2 μl, room temperature 10 minutes, head space gas detection tube
Procedure: as §1, §2, §3

Deodorizing ratio (%) [2] [%]	Deodorizing ratio (%) [3] [%]	Molecule	Anti-oxidation activity (T. μmol/μmol) [1] [T. μmol/μmol]
−10	−18	COc1cc(/C=C/C(=O)O)ccc1O [Ferulic acid, ferulic acid]	0.37
−20	−18	ferulylquinic acid	0.35
75	100	O=C(/C=C/c1ccc(O)c(O)c1)O[C@@H]1C[C@@](O)(C(=O)O)C[C@@H](O)[C@@H]1O [Example 5-CQA, 5-caffeoylquinic acid]	1.03
